Results from patent US20240293466A1, “DIFFERENTIAL CXCR4 […] HEMATOPOIETIC PROGENITOR CELLS VERSUS STEM CELLS DIRECTS HOMING AND LONG-TERM ENGRAFTMENT” (priority 2021, published 2024).

Columns and labels:
CXCR4 = CXCR4 (Homo sapiens, UniProt P61073)
Procedure: 6- to 14-week-old NOD.Cg-Prkdc^scid Il2rg^tm1Wjl/SzJ (NSG) mice were used in UCB- and MPB-derived HSPC transplant experiments. Mice were irradiated with 280 cGy prior to transplant. For homing experiments, each mouse received 3×10^6 CD34+cells and 16-22 hours post-injection, the mice were sacrificed and bone marrow from the femurs was analyzed for human cell content. For long-term engraftment experiments, mice received limiting dilution CD34+or CD34+CD38−HSPC doses. IV injections were done by injecting HSPC in 200-250 μL via tail vein and IBM injections were done by injecting HSPC in 10 μL into the femur.
The cells were washed with PBS and transplanted into NSG mice for homing experiments.
CD34+cells were transduced with a blue fluorescent protein (BFP) encoding LV vector and the CD34+CD38+BFP+HPC were sorted by flow cytometry.

VLA-4 = biological target: T1, VLA-4 (Homo sapiens, UniProt P05556+P13612); experiment: Homing of CD34+CD38+ HPC into bone marrow of NSG mice after VLA-4 blockade; type: in vivo; conditions: IV or IBM delivery; HPC pre-treated with 1 μM BIO5192
T1 construct: endogenous in cells; host or cells: human G-CSF mobilized peripheral blood CD34+CD38+BFP+ HPC, sorted after transduction with a BFP-only LV vector
T1 sequence (P13612 34-1032): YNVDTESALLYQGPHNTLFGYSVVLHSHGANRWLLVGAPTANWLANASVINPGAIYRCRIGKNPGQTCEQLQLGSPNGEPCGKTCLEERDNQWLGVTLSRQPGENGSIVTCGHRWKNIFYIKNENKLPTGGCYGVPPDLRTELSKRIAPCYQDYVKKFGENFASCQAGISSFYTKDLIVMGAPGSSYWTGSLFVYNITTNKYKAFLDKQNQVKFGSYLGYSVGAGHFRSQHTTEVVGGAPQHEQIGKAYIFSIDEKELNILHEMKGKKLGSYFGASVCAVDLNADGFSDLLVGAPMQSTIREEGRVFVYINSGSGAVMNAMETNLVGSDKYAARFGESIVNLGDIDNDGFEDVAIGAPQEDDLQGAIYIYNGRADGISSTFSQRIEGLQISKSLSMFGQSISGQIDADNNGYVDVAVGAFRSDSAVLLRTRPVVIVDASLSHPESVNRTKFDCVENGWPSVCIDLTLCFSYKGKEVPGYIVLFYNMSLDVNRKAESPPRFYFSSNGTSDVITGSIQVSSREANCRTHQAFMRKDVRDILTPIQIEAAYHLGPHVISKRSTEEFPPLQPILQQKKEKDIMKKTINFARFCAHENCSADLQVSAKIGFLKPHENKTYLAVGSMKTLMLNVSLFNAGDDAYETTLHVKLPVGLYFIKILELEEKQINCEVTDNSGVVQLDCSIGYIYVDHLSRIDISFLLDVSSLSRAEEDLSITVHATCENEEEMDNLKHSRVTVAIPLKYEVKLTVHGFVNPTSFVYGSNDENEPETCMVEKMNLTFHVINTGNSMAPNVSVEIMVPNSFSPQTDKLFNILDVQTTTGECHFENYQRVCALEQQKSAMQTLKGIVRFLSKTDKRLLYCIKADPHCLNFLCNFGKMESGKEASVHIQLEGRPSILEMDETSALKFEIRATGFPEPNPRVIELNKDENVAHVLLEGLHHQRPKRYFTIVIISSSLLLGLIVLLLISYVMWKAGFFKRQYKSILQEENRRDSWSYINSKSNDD
T1 sequence (P05556 21-798): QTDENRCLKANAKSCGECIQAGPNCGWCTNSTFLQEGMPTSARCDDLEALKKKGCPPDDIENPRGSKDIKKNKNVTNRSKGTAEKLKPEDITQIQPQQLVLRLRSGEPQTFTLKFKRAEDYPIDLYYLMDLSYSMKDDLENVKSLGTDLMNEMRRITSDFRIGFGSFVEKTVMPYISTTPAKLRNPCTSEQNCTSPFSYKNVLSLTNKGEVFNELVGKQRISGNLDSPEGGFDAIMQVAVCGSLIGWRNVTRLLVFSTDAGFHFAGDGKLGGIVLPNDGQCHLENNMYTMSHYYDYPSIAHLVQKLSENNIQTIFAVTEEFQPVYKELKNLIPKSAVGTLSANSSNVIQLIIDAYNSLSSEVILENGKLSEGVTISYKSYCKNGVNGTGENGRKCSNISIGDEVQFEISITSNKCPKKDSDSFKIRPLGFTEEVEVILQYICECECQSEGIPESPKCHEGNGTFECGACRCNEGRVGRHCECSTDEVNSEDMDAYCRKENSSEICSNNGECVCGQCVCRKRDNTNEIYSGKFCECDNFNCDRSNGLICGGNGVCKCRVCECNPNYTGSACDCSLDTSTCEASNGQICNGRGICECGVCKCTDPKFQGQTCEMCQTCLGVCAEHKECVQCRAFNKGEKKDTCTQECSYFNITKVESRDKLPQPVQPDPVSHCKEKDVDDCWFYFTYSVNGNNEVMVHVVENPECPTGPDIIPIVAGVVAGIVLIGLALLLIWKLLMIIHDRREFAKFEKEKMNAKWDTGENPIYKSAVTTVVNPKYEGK
Procedure: (§1) Mice were irradiated with 280 cGy prior to transplant.
CD34+HSPC were resuspended in PBS containing 1 μM BIO5192 (Tocris, 5051) and incubated on ice for 20 minutes.

[1] = tested on: CD34+CD38- HSC-enriched cells; experiment: Long-term (24 week) engraftment of transduced CD34+CD38- cells in NSG mice; type: in vivo, human; conditions: 24 weeks
Source text: as §1
At 12 weeks following transplant, bone marrow was harvested via aspirate of the femur for in vivo engraftment analysis. For animals that received IBM injections into one femur, the non-injected alternate femur was aspirated. For 24 week and homing analysis, mice were sacrificed, and bone marrow was harvested from both the rear and forelimbs. Cells were stained fresh with the following antibodies: PerCP anti-human CD45 (BioLegend 304026), Anti-human CD33 PE-Cy7 (eBioscience 25-0338-42), APC-Cy7 Mouse Anti-Human CD19 (BD 557791), Anti-Human CD3 PE (BD BioSciences 555340), and APC Mouse Anti-Human CD34 (BD BioScience 555824). Red bloods cells were lysed after staining using red blood cell lysis buffer.
Next, CD34+CD38−HSC-enriched cells were sorted, transduced with GFP LV^CXCR4 vector or GFP LV control vector, and transplanted them IV or IBM in two limiting dilutions to irradiated NSG mice to assess engraftment of the long-term repopulating HSC at 6 months post-transplant (FIG. 5F-5G). […] The slightly higher engraftment of untransduced IV transplanted cells (FIGS. 5F and 10C) was likely because LV preparations often contain some defective viral particles, which, like VLP, would deliver CXCR4 protein but not result in an effective transduction (transgene transfer or GFP+cells). […]

[2] = tested on: MPB CD34+ HSPC / CD34+CD38- cells; experiment: Gene transfer efficiency of LV vectors in HSPC; type: cell-based, human
Procedure: UCB and G-CSF MPB were obtained and CD34+HSPC were isolated by magnetic selection with Indirect CD34 Microbead kit, human (Miltenyi, 130-046-701). CD34+purity was >95% as confirmed by flow cytometry. CD34+CD38−cells were isolated from G-CSF MPB by magnetic selection with CD34+CD38−Isolation Kit, human (Miltenyi, 130-114-822) and cryopreserved. Thawed CD34+ or CD34+CD38−cells were cultured in X-VIVO 10 (Lonza BE02-055Q) or SCGM (CellGenix 20806-0500) supplemented with 2% human serum albumin, 100 ng/mL TPO, 300 ng/mL SCF, and 300 ng/mL FLT3-L (all cytokines purchased from Peprotech) at a cell density of 2-5×10^6 CD34+cells/mL. Media was supplemented with Birb 796 (600 nM) (Selleckchem) throughout culture and Prostaglandin E2 (10 μM) (Cayman) at plating, transduction, and 1 hour before harvest. Cells were transduced with a lentiviral vector in culture for 36-42 hours where indicated. CD34+HSPC were transduced at a final concentration of 5×10^7-1×10^8 IU/mL. Following culture, CD34+HSPC were harvested and washed with PBS, resuspended in PBS, and used in in vivo or in vitro experiments, as described below.

[3] = tested on: CD34+CD38- HSC-enriched cells; experiment: Homing of CD34+CD38-BFP+ cells mixed with CD34+CD38+ HPC in NSG mice; type: in vivo, human; conditions: 20-22 hours
Source text: as §1
An alternative explanation for the competitive homing and engraftment advantage of HPC could be that they comprise the vast majority of CD34+HSPC (98-99%), while HSC are a small minority. It was experimentally conferred the HSC-enriched CD34+CD38− population with slightly higher CXCR4 expression than the CD34+CD38+HPC and assessed homing (FIG. 3D). The CD34+HSPC were transduced with a BFP-CXCR4-encoding LV vector or a BFP-encoding LV control vector and CD34+CD38−BFP+HSC-enriched cells were sorted along with untransduced CD34+CD38+BFP−HPC. CXCR4 expression on these populations was assessed before transplant. In control cells, CXCR4 expression on the more primitive CD34+CD38−cells was much lower (MFI 16,930) than on CD34+CD38+HPC (MFI 35,098) (FIG. 3E), consistent with prior data (see, e.g., FIG. 2D). […] The sorted BFP-HPC population was then mixed with the BFP+CD34+CD38−CXCR4^high HSC-enriched cell population in ratios seen in CD34+HSPC prior to sorting, and transplanted them either IV or IBM, and homing of the CD34+CD38−BFP+CXCR4^high HSC-enriched cells was assessed. Control CD34+CD38−BFP+cells were also mixed with CD34+CD38+BFP−HPC and transplanted IV or IBM (FIG. 3D) and their homing into bone marrow was assessed. […]

[4] = tested on: CD34+CD38- HSC-enriched cells; experiment: CXCR4 expression (flow cytometry MFI) on sorted transduced cells at time of transplant; type: cell-based, human; conditions: CD34+CD38-BFP+ cells, 72 hours after gene transfer
Source text: All LV vectors were packaged using the Gag-Pol, Rev and VSV-G envelope plasmids. All vectors were under the control of the MNDU3 promoter. The GFP LV construct was pRRL.SIN.cPPT.MNDU3.eGFP.WPRE. The BFP LV construct was designed by replacing the GFP cDNA in pRRL.SIN.cPPT.MNDU3.eGFP.WPRE.with mTag2BFP. The BFP-CXCR4 LV was pRRL.SIN.cPPT.MNDU3.mTag2BFP-CXCR4.WPRE. All lentiviral vectors were packaged in HEK 293T (ATCC) cells and vector titers determined in the murine erythroleukemia (MEL) (ATCC) cells as previously described (Perumbeti et al., Blood, 2009; Urbinati et al., Mol Ther, 2009; Arumugam et al., Mol Ther, 2009). […]
An alternative explanation for the competitive homing and engraftment advantage of HPC could be that they comprise the vast majority of CD34+HSPC (98-99%), while HSC are a small minority. It was experimentally conferred the HSC-enriched CD34+CD38− population with slightly higher CXCR4 expression than the CD34+CD38+HPC and assessed homing (FIG. 3D). […] CXCR4 expression on these populations was assessed before transplant. […] The sorted BFP-HPC population was then mixed with the BFP+CD34+CD38−CXCR4^high HSC-enriched cell population in ratios seen in CD34+HSPC prior to sorting, and transplanted them either IV or IBM, and homing of the CD34+CD38−BFP+CXCR4^high HSC-enriched cells was assessed. […]

CXCR4, sequence (P61073 whole entry): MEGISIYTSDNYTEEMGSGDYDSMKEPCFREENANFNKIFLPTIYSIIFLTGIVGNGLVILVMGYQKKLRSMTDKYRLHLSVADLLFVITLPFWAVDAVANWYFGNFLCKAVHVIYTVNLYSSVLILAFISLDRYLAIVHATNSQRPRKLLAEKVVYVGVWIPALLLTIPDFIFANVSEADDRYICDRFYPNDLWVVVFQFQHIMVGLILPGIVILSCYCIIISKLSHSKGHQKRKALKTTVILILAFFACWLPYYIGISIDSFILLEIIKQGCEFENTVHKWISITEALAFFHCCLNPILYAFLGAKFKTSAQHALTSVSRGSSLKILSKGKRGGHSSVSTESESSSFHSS

## c1cc(CN2CCCNCCNCCCNCC2)ccc1CN1CCCNCCNCCCNCC1 [AMD3100]
CXCR4; IBM delivery, CD34+CD38+BFP+ HPC pre-treated with 100 ug/mL AMD3100, reduced to homing levels of IV delivery or nonIF
  human HPC content in the injected femur (IF): significantly reduced
CXCR4; IV delivery, HPC pre-treated with AMD3100
  homing of IV injected cells: note blocked

## Cc1ccccc1NC(=O)Nc1ccc(CC(=O)N(C)[C@@H](CC(C)C)C(=O)NCC[C@H](NC(=O)[C@@H]2CCCN2S(=O)(=O)c2cc(Cl)cc(Cl)c2)C(=O)O)cc1 [BIO5192]
VLA-4
  CD34+38+ HPC homing pattern vs corresponding controls: did not alter

## pRRL.SIN.cPPT.MNDU3.eGFP.WPRE [GFP LV]
[1]
  lineage repopulation: full multilineage repopulation
[2]; CD34+CD38- HSC-enriched cells, experiment of FIG. 4
  gene transfer efficiency: 69%
[2]; CD34+CD38- cells, homing/engraftment experiment of FIGS. 5 and 10
  gene transfer: 60%
[2]; MPB CD34+HSPC, experiment of FIG. 1
  gene transfer: 63-66%

## pRRL.SIN.cPPT.MNDU3.mTag2BFP-CXCR4.WPRE [BFP-CXCR4 LV vector]
[3]; IV administration, mixed with majority of CD34+38+ HPC
  homing of CD34+CD38- cells to bone marrow: higher homing levels
[3]; direct IBM transplantation, mixed with majority of HPC
  homing of CD34+CD38- cells to bone marrow: remarkably improved homing advantage
[4]
  CXCR4 expression MFI: 37,453
